# Test results: US20050142111A1, “Method to prevent transplant rejection by stable expression of heme oxygenase-1” (priority 2003, published 2005)
# Columns and labels:
# HO = molecular target: T1, HO (Rattus norvegicus, UniProt P06762); test: Blocking of HO activity by ZnPPIX, carboxyhemoglobin in peripheral blood of recipients; assay type: in vivo; conditions: 2 mg/kg/day intraperitoneally to recipients
# T1 construct: expressed in transfected cells; host or cells: LEW rat heart allografts transduced with rAAV/HO-1, in F344 rat recipients (in vivo)
# T1 sequence (P06762 1-289): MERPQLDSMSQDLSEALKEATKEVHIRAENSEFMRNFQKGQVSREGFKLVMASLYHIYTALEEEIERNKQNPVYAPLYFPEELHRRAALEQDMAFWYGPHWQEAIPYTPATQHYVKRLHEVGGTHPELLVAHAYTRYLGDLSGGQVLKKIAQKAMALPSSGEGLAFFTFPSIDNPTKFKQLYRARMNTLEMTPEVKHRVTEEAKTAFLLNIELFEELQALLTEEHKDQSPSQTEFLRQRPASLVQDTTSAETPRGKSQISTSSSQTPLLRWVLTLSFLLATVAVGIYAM
# Method: Heme oxygenase-1 inhibitor, zinc protoprophyrin IX (ZnPPIX, Calbiochem-Novabiochem, Germany) was administered intraperitoneally according to the experimental protocols.
# The HO enzyme activity was measured by two of its end products: carbon monoxide and biliverdin/bilirubin. The amount of carbon monoxide was measured by spectrophotometry providing a determination of carboxyhemoglobin in the peripheral blood of the animals. The level of intragraft bilirubin was measured by the method as described. In brief, the frozen samples of grafts were homogenized in ice-cold sucrose and Tri-HCl buffer. The microsomal pellet was obtained after centrifugation, and re-suspended in MgCl2-potassium phosphate buffer. Sample protein was then incubated with the reaction mixture containing rat liver cytosol, hemin, glucose-6-phosphate, glucose-6-phosphate dehydrogenase and NADPH (Sigma-Aldrich, St. Louis) for 60 minutes at 37° C. The generated bilirubin was measured by reacting with diazotized surfanilic acid to yield azobilirubin using spectrophotometry. The level of intragraft bilirubin was deduced by the ratio of its contents in the sample/naive heart. […]
# [1] = test system: LEW heart grafts to F344 recipients; test: Allogeneic heart transplant graft survival; assay type: in vivo, rat
# Method: LEW (RT1′) and F344 (RT1^lvl) rats were purchased from the Institute of Laboratory Animals, Medical School Hannover, Germany, and maintained in the Laboratory Animal Unit, The University of Hong Kong. All experimental procedures were performed according to institutional guidelines and approved by the Committee on the Use of Live Animal in Teaching and Research. Allogeneic heart transplants were performed using LEW and F344 rats weighing from 200-250 grams as donors or recipients respectively. For the syngeneic graft, LEW rats were used as recipients. In brief, after in situ perfusion of donor heart grafts with the HTK solution (Koehler Chemie, Germany), 1×10^12 vector genomes of rAAV/GFP or rAAV/HO-1 were administered into the heart graft via the coronary artery. Grafts were then preserved in cold HTK solution for 6 hours before the transplant. The implantation procedure was as described in the literature. Graft function was monitored by daily palpation, and the allograft rejection was defined by full cessation of ventricular contraction, and confirmed by pathological examination.
# Heme oxygenase-1 inhibitor, zinc protoprophyrin IX (ZnPPIX, Calbiochem-Novabiochem, Germany) was administered intraperitoneally according to the experimental protocols. […]
structure (smiles),measurement,setting,value
"C=CC1=C(C)c2cc3[n-]c(cc4[n-]c(cc5nc(cc1n2)C(C)=C5C=C)c(C)c4CCC(=O)O)c(CCC(=O)O)c3C.[Zn+2] [ZnPPIX, zinc protoporphyrin IX]","HO activity, level of carboxyhemoglobin",HO,significantly inhibited
same,graft survival rate in rAAV/HO-1+CsA group,[1]; ZnPPIX administered from day 31 to 100,remained unchanged
same,graft survival in rAAV/HO-1+CsA group,[1]; combined administration of ZnPPIX from day 0 to 30,shortened
